Series [1] addresses T1, Adrenergic receptor alpha-2 (Rattus norvegicus, UniProt P22086+P19328+P22909).
T1 sequence (P22086 whole entry): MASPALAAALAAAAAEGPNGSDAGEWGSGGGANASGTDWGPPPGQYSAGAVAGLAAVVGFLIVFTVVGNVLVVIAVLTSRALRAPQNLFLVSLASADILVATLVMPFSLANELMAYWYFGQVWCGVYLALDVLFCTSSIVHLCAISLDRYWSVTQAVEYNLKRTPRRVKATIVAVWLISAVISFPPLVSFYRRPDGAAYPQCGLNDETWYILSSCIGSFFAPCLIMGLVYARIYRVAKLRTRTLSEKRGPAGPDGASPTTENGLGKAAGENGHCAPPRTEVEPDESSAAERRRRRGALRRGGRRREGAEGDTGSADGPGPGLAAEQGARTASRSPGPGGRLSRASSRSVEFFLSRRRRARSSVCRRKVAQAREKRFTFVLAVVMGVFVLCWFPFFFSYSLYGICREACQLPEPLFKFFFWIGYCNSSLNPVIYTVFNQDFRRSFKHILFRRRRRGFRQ
T1 sequence (P19328 whole entry): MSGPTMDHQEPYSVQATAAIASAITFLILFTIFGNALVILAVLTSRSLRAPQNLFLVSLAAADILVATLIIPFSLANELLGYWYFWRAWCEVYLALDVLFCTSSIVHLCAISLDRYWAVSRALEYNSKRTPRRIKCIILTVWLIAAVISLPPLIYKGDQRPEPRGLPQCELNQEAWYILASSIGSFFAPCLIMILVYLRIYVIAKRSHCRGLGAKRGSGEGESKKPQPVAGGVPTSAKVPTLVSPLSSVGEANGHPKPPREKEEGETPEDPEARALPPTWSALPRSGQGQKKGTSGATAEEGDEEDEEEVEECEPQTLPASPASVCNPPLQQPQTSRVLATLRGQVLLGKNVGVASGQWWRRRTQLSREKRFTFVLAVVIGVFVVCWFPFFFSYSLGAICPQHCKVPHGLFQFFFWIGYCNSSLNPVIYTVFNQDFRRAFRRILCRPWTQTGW
T1 sequence (P22909 whole entry): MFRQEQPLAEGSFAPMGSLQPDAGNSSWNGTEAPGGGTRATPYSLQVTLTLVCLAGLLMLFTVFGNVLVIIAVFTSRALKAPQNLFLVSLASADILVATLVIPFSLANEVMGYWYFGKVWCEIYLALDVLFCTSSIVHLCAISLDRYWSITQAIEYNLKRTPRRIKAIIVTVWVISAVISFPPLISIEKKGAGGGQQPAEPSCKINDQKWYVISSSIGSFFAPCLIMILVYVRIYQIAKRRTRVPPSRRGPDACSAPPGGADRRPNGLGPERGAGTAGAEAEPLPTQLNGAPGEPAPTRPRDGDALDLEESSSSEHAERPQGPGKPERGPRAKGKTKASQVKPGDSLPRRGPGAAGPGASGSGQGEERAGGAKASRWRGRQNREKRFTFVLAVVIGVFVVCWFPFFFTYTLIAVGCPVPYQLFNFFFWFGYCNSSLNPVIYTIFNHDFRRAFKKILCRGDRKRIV
Nature of the series: Antagonistic activity against Alpha-2 adrenergic receptor in the prostatic portion of the rat vas deferens. It is filed as functional, tissue-based.

The nature of series [2]: Tested for the 1-Octanol distribution coefficient determined by HPLC method (pH 7.4). It is filed as physicochemical. The settings on record: 1-octanol/aqueous phase.
Series [3] concerns the target T2, Adrenergic receptor alpha-1 (Rattus norvegicus, UniProt P15823+P23944+P43140).
T2 sequence (P15823 whole entry): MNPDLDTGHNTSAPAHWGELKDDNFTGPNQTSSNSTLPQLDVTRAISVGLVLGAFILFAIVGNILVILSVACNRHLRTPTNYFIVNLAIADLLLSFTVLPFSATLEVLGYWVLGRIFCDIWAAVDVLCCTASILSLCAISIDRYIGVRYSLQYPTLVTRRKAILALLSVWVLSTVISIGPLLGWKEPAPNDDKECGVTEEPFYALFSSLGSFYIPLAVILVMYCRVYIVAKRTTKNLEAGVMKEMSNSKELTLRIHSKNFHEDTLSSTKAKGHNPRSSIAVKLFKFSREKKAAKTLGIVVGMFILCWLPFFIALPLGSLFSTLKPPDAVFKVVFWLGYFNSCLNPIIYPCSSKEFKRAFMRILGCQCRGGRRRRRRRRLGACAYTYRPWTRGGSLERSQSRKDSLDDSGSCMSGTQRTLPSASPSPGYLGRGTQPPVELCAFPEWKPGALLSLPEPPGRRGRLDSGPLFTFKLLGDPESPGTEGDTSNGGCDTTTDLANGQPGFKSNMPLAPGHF
T2 sequence (P23944 whole entry): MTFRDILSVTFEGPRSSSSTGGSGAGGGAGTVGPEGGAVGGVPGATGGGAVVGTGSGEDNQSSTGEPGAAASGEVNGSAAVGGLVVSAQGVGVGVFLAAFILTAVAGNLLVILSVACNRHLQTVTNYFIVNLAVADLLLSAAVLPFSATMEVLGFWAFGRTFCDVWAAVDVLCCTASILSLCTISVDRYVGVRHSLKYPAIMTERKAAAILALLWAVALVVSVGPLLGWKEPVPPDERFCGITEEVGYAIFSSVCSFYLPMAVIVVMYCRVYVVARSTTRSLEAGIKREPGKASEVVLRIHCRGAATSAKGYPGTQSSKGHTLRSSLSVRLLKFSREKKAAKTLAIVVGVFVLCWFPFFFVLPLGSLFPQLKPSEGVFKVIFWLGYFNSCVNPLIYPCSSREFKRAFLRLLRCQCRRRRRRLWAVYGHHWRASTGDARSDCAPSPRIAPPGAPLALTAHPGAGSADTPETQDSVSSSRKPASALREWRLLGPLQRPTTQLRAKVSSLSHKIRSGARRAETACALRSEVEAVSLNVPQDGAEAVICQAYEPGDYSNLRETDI
T2 sequence (P43140 whole entry): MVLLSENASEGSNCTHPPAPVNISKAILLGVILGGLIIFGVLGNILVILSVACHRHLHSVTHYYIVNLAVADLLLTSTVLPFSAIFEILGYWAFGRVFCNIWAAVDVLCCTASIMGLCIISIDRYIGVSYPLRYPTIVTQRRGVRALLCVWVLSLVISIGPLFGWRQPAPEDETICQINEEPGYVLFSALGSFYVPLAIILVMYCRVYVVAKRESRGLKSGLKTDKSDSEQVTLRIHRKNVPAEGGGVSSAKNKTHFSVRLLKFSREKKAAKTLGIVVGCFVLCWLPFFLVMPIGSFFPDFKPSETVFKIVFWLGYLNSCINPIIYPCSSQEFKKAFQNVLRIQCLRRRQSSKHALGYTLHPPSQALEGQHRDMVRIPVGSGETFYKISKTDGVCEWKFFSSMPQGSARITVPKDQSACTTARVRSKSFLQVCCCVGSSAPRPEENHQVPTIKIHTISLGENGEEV
Nature of the series: Antagonistic activity against Alpha-1 adrenergic receptor in the epididymal portion of the rat vas deferens. It is filed as functional, tissue-based.

In series [4] the target is Adrenergic receptor alpha (Rattus norvegicus) (UniProt P15823+P23944+P43140+P22086+P19328+P22909). Nature of the series: Selectivity ratio is the […] of alfa2 and alfa1 adrenoceptors. The series is classed as protein assay.
The target in series [5] is T2, Adrenergic receptor alpha-1. Nature of the series: […] activity against Alpha-1 adrenergic receptor in the epididymal portion of the rat vas deferens. It is filed as functional, tissue-based.

The structures appear in SMILES notation. Where a name gives a salt, the structure may show the parent alone. A value given as a limit tells only on which side of the number the result lay.

The pA2 is the negative logarithm of the molar antagonist concentration that doubles the agonist concentration needed for the same response. The logD is lipophilicity at a set pH, counting ionised and neutral species. As to `Cl.c1ccc2c(c1)OCC(c1ncc[nH]1)O2` (stereo unspecified), the pA2 is 5.6 in series [1] and less than 4 in series [3]. This molecule displayed a logD in series [2] of 1.76. Further, the Selectivity ratio in series [4] is greater than 39.8.
On to `c1ccc2c(c1)OCC(Cc1nc3ccccc3[nH]1)O2` (stereo unspecified), for which the logD in series [2] was found to be 3.29.
As for `CCN1CCN=C1CC1COc2ccccc2O1.Cl` (stereo unspecified), the pA2 is 6.7 in series [1] and 5 in series [3]. For the same molecule, the Selectivity ratio in series [4] was determined as 50.1.
For `Cl.c1ccc(-c2c[nH]c(CC3COc4ccccc4O3)n2)cc1` (stereo unspecified), the pA2 in series [1] is given as 5.51; in series [3], less than 5. The molecule further came in with a logD in series [2] greater than 2.5. In series [4], the Selectivity ratio is greater than 3.2.
`c1ccc2c(c1)OCC(C1=NCCN1)O2` (stereo unspecified) [IDAZOXAN HYDROCHLORIDE]: the logD in series [2] amounted to 0.33.
For the molecule `Cl.c1ccc2c(c1)OCC(CCc1ncc[nH]1)O2` (stereo unspecified), the logD in series [2] was found to be 1.99. For the same molecule, the pA2 in series [3] is recorded as 4.2. For the same molecule, the Selectivity ratio in series [4] was determined as 102.
For the molecule `COc1cccc(Cn2ccnc2CC2COc3ccccc3O2)c1.Cl` (stereo unspecified), the pA2 in series [1] is 6.58; in series [5], 5. In addition, the Selectivity ratio in series [4] turned out to be 38.
For the molecule `Cl.c1ccc2c(c1)OCC(CC1=NCCN1)O2` (stereo unspecified), the pA2 worked out at 7 in series [1] and 5 in series [3]. The molecule also gave a logD in series [2] of 0.28. In series [4], the Selectivity ratio was found to be 100.
`c1ccc2c(c1)OCC(CN1CCCCC1)O2` (stereo unspecified) [PIPEROXAN] yielded a pA2 in series [1] of 7.4.
Turning to `Clc1cccc(Cl)c1Cn1ccnc1CC1COc2ccccc2O1` (stereo unspecified), the pA2 in series [1] was 6; in series [3] it was less than 5. In series [4], the Selectivity ratio is greater than 10.
On the same counts, the results for `CCCCn1ccnc1CC1COc2ccccc2O1.Cl` (stereo unspecified) are 6.84, less than 4.5 and greater than 219.
Consider `CC(C)n1ccnc1CC1COc2ccccc2O1` (stereo unspecified), for which the results for the pA2 in series [1] and in series [3] were 6.56 and 4.3, respectively. In addition, in series [4], the Selectivity ratio amounted to 182.
Consider `c1ccc2c(c1)OCC(Cc1ncc[nH]1)O2` (stereo unspecified), for which the logD in series [2] was found to be 1.92.
The same measure, in the same setting: for `CCCn1ccnc1CC1COc2ccccc2O1` (stereo unspecified) the value was 2.4.
For the molecule `Cl.N=C(N)CC1COc2ccccc2O1` (stereo unspecified), the pA2 in series [1] is listed as 5.4; in series [3], less than 5. In addition, the Selectivity ratio in series [4] is greater than 2.5.
With `CCn1ccnc1CC1COc2ccccc2O1.Cl` (stereo unspecified) [IMILOXAN HYDROCHLORIDE], the pA2 in series [1] was 6.71; in series [3], less than 4. In series [2], the logD came to 2.31.
Molecule `Cl.Cn1ccnc1CC1COc2ccccc2O1` (stereo unspecified) returned a logD in series [2] of 1.93. Besides, the pA2 in series [3] is 4.33. Besides, the Selectivity ratio in series [4] was found to be 74.1.
With `Cl.c1ccc(Cn2ccnc2CC2COc3ccccc3O2)cc1` (stereo unspecified), the pA2 was determined as 6.84 in series [1] and 5 in series [5]. Also, the logD in series [2] is greater than 2.5. Also, in series [4], the Selectivity ratio is 69.2.
Consider `NCC1(c2ccccc2)OCCO1`, for which the results for the pA2 in series [1] and in series [3] were 5.5 and less than 5, respectively. In addition, the Selectivity ratio in series [4] is greater than 3.2.

The record behind these values is ChEMBL document CHEMBL1122073, “Structure-activity relationships for 2-substituted imidazoles as alpha 2-adrenoceptor antagonists” (J Med Chem, 1982).
